Measurements from patent US9115143B2, “Substituted indole derivatives as gamma secretase modulators” (Janssen Pharmaceuticals, Inc., priority 2011, dated 2015).

Legend:
Aβ42 = test: Screening for γ-secretase-modulating activity: Aβ42 in supernatant of SKNBE2 cells carrying hAPP 695 wild type (Alphalisa); type: cell-based, human; conditions: SKNBE2 human neuroblastoma cells carrying hAPP 695 wild type; overnight incubation; Alphalisa on supernatant
Description: (§1) Pharmacology A) Screening of the Compounds of the Invention for γ-Secretase-Modulating Activity
(§2) Screening was carried out using SKNBE2 human neuroblastoma cells carrying the hAPP 695—wild type, grown in Dulbecco's Modified Eagle's Medium/Nutrient mixture F-12 (DMEM/NUT-mix F-12) (HAM) provided by Invitrogen (cat no. 10371-029) containing 5% Serum/Fe supplemented with 1% non-essential amino acids, 1-glutamine 2 mM, Hepes 15 mM, penicillin 50 U/mL (units/mL) en streptomycin 50 μg/mL. Cells were grown to near confluency.
(§3) The screening was performed using a modification of the assay as described in Citron et al (1997) Nature Medicine 3: 67. Briefly, cells were plated in a 384-well plate at 10^4 cells/well in Ultraculture (Lonza, BE12-725F) supplemented with 1% glutamine (Invitrogen, 25030-024), 1% non-essential amino acid (NEAA), penicillin 50 U/mL en streptomycin 50 μg/mL in the presence of test compound at different test concentrations. The cell/compound mixture was incubated overnight at 37° C., 5% CO2. The next day the media were assayed by two sandwich immuno-assays, for Aβ42 and Aβtotal.
(§4) Aβtotal and Aβ42 concentrations were quantified in the cell supernatant using the Aphalisa technology (Perkin Elmer). Alphalisa is a sandwich assay using biotinylated antibody attached to streptavidin coated donorbeads and antibody conjugated to acceptor beads. In the presence of antigen, the beads come into close proximity. The excitation of the donor beads provokes the release of singlet oxygen molecules that trigger a cascade of energy transfer in the acceptor beads, resulting in light emission. To quantify the amount of Aβ42 in the cell supernatant, monoclonal antibody specific to the C-terminus of Aβ42 (JRF/cAβ42/26) was coupled to the receptor beads and biotinylated antibody specific to the N-terminus of Aβ (JRF/AβN/25) was used to react with the donor beads. To quantify the amount of Aβ total in the cell supernatant, monoclonal antibody specific to the N-terminus of Aβ (JRF/AβN/25) was coupled to the receptor beads and biotinylated antibody specific to the mid region of Aβ (biotinylated 4G8) was used to react with the donor beads.
(§5) To obtain the values reported in Table 3, the data are calculated as percentage of the maximum amount of amyloid Beta 42 measured in the absence of the test compound. The sigmoidal dose response curves were analyzed using nonlinear regression analysis with percentage of the control plotted against the log concentration of the compound. A 4-parameter equation was used to determine the IC50.

Aβtotal = test: Screening for γ-secretase-modulating activity: Aβtotal in supernatant of SKNBE2 cells carrying hAPP 695 wild type (Alphalisa); type: cell-based, human; conditions: overnight incubation, Alphalisa on supernatant
Description: as §1, §2, §3, §4, §5

[1] = SKNBE2 human neuroblastoma cells carrying hAPP 695 wild type
[2] = Homo sapiens, SKNBE2, SKNBE2 human neuroblastoma cells carrying hAPP 695 wild type

COc1c(C#N)ccc2[nH]c(-c3cn4c(n3)C(c3ccccc3C(F)(F)F)OCC4)cc12 (single isomer, unassigned) [Compound 45, 2-[5,6-dihydro-8-[2-(trifluoromethyl)phenyl]-8H-imidazo[2,1-c][1,4]oxazin-2-yl]-4-methoxy-1H-indole-5-carbonitrile]
IC50 (Aβ42): 372 nM
IC50 (Aβtotal; [1]): > 10000 nM

COc1c(C#N)ccc2[nH]c(-c3nc4n(n3)CCOC4c3ccccc3C(F)(F)F)cc12 (single isomer, unassigned) [Compound 57, 2-[5,6-dihydro-8-[2-(trifluoromethyl)phenyl]-8H-[1,2,4]triazolo[5,1-c][1,4]oxazin-2-yl]-4-methoxy-1H-indole-5-carbonitrile]
IC50 (Aβ42): 603 nM
IC50 (Aβtotal; [1]): > 10000 nM

Cc1cn(-c2ccc3[nH]c(-c4nc5n(n4)CCCC5c4ccc(F)cc4C)cc3c2)cn1 (single isomer, unassigned) [Compound 76, 8-(4-fluoro-2-methylphenyl)-5,6,7,8-tetrahydro-2-[5-(4-methyl-1H-imidazol-1-yl)-1H-indol-2-yl]-[1,2,4]triazolo[1,5-a]pyridine]
IC50 (Aβ42): 141 nM
IC50 (Aβtotal; [2]): > 10000 nM

COc1c(-n2cnc(C)c2)ccc2[nH]c(-c3cn4c(n3)C(c3ccc(F)cc3C)CCC4)cc12 (single isomer, unassigned) [Compound 78, 8-(4-fluoro-2-methylphenyl)-5,6,7,8-tetrahydro-2-[4-methoxy-5-(4-methyl-1H-imidazol-1-yl)-1H-indol-2-yl]-imidazo[1,2-a]pyridine]
IC50 (Aβ42): 30 nM
IC50 (Aβtotal; [2]): > 10000 nM

COc1c(-n2cnc(C)c2)ccc2[nH]c(-c3cn4c(n3)C(c3ccc(F)cc3C)CCC4)cc12 (single isomer, unassigned) [Compound 79, 8-(4-fluoro-2-methylphenyl)-5,6,7,8-tetrahydro-2-[4-methoxy-5-(4-methyl-1H-imidazol-1-yl)-1H-indol-2-yl]-imidazo[1,2-a]pyridine]
IC50 (Aβ42): 186 nM
IC50 (Aβtotal; [1]): > 10000 nM

COc1ccccc1C1CCCn2nc(-c3cc4cc(-n5cnc(C)c5)ccc4[nH]3)nc21 (single isomer, unassigned) [Compound 80, 5,6,7,8-tetrahydro-8-(2-methoxyphenyl)-2-[5-(4-methyl-1H-imidazol-1-yl)-1H-indol-2-yl]-[1,2,4]triazolo[1,5-a]pyridine]
IC50 (Aβ42): 468 nM
IC50 (Aβtotal; [2]): > 10000 nM

COc1ccccc1C1CCCn2nc(-c3cc4cc(-n5cnc(C)c5)ccc4[nH]3)nc21 (single isomer, unassigned) [Compound 81, 5,6,7,8-tetrahydro-8-(2-methoxyphenyl)-2-[5-(4-methyl-1H-imidazol-1-yl)-1H-indol-2-yl]-[1,2,4]triazolo[1,5-a]pyridine]
IC50 (Aβ42): 74 nM
IC50 (Aβtotal; [1]): > 10000 nM

COc1c(-n2cnc(C)c2)ccc2[nH]c(-c3nc4n(n3)CCCC4c3ccc(F)cc3C)cc12 (single isomer, unassigned) [Compound 83, 8-(4-fluoro-2-methylphenyl)-5,6,7,8-tetrahydro-2-[4-methoxy-5-(4-methyl-1H-imidazol-1-yl)-1H-indol-2-yl]-[1,2,4]triazolo[1,5-a]pyridine]
IC50 (Aβ42): 14 nM
IC50 (Aβtotal; [1]): 2340 nM

COc1c(-n2cnc(C)c2)ccc2[nH]c(-c3nc4n(n3)CCCC4c3ccc(F)cc3C)cc12 (single isomer, unassigned) [Compound 84, 8-(4-fluoro-2-methylphenyl)-5,6,7,8-tetrahydro-2-[4-methoxy-5-(4-methyl-1H-imidazol-1-yl)-1H-indol-2-yl]-[1,2,4]triazolo[1,5-a]pyridine]
IC50 (Aβ42): 48 nM
IC50 (Aβtotal; [1]): 5370 nM

Cc1cn(-c2cnc3[nH]c(-c4nc5n(n4)CCCC5c4ccc(F)cc4C)cc3c2)cn1 (single isomer, unassigned) [Compound 87, 8-(4-fluoro-2-methylphenyl)-5,6,7,8-tetrahydro-2-[5-(4-methyl-1H-imidazol-1-yl)-1H-pyrrolo[2,3-b]pyridin-2-yl]-[1,2,4]triazolo[1,5-a]pyridine]
IC50 (Aβ42): 447 nM
IC50 (Aβtotal; [1]): > 10000 nM

Cc1cn(-c2cnc3[nH]c(-c4nc5n(n4)CCCC5c4ccc(F)cc4C)cc3c2)cn1 (single isomer, unassigned) [Compound 88, 8-(4-fluoro-2-methylphenyl)-5,6,7,8-tetrahydro-2-[5-(4-methyl-1H-imidazol-1-yl)-1H-pyrrolo[2,3-b]pyridin-2-yl]-[1,2,4]triazolo[1,5-a]pyridine]
IC50 (Aβ42): 65 nM
IC50 (Aβtotal; [2]): > 10000 nM

Cc1cc(F)ccc1C1OCCn2cc(-c3cc4nc(-c5cnn(C)c5)ccc4[nH]3)nc21 (single isomer, unassigned) [Compound 101, 8-(4-fluoro-2-methylphenyl)-5,6-dihydro-2-[5-(1-methyl-1H-pyrazol-4-yl)-1H-pyrrolo[3,2-b]pyridin-2-yl]-8H-imidazo[2,1-c][1,4]oxazine]
IC50 (Aβ42): 2190 nM
IC50 (Aβtotal; [2]): > 10000 nM

COc1c(-n2cnc(C)c2)ccc2[nH]c(-c3cn4c(n3)C(c3ccc(F)cc3C)OCC4)cc12 (single isomer, unassigned) [Compound 112, 8-(4-fluoro-2-methylphenyl)-5,6-dihydro-2-[4-methoxy-5-(4-methyl-1H-imidazol-1-yl)-1H-indol-2-yl]-8H-imidazo[2,1-c][1,4]oxazine]
IC50 (Aβ42): 21 nM
IC50 (Aβtotal; [2]): > 10000 nM

COc1c(-n2cnc(C)c2)ccc2[nH]c(-c3cn4c(n3)C(c3ccc(F)cc3C)OCC4)cc12 (single isomer, unassigned) [Compound 113, 8-(4-fluoro-2-methylphenyl)-5,6-dihydro-2-[4-methoxy-5-(4-methyl-1H-imidazol-1-yl)-1H-indol-2-yl]-8H-imidazo[2,1-c][1,4]oxazine]
IC50 (Aβ42): 151 nM
IC50 (Aβtotal; [1]): > 10000 nM

COc1c(C#N)ccc2[nH]c(-c3nc4n(n3)CCOC4c3c(F)cccc3Cl)cc12 (single isomer, unassigned) [Compound 118, 2-[8-(2-chloro-6-fluorophenyl)-5,6-dihydro-8H-[1,2,4]triazolo[5,1-c][1,4]oxazin-2-yl]-4-methoxy-1H-indole-5-carbonitrile]
IC50 (Aβ42): 3800 nM
IC50 (Aβtotal; [1]): > 10000 nM

COc1c(C#N)ccc2[nH]c(-c3cn4c(n3)C(c3c(F)cccc3Cl)OCC4)cc12 (single isomer, unassigned) [Compound 123, 2-[8-(2-chloro-6-fluorophenyl)-5,6-dihydro-8H-imidazo[2,1-c][1,4]oxazin-2-yl]-4-methoxy-1H-indole-5-carbonitrile]
IC50 (Aβ42): 2820 nM
IC50 (Aβtotal; [1]): > 10000 nM

COc1c(C#N)ccc2[nH]c(-c3cn4c(n3)C(c3cccc(F)c3C(F)(F)F)OCC4)cc12 (single isomer, unassigned) [Compound 132, 2-[8-[3-fluoro-2-(trifluoromethyl)phenyl]-5,6-dihydro-8H-imidazo[2,1-c][1,4]oxazin-2-yl]-4-methoxy-1H-indole-5-carbonitrile]
IC50 (Aβ42): 490 nM
IC50 (Aβtotal; [1]): > 10000 nM

COc1c(C#N)ccc2[nH]c(-c3nc4n(n3)CCOC4c3cccc(F)c3C(F)(F)F)cc12 (single isomer, unassigned) [Compound 134, 2-[8-[3-fluoro-2-(trifluoromethyl)phenyl]-5,6-dihydro-8H-[1,2,4]triazolo[5,1-c][1,4]oxazin-2-yl]-4-methoxy-1H-indole-5-carbonitrile]
IC50 (Aβ42): 1000 nM
IC50 (Aβtotal; [1]): > 10000 nM

COc1c(C#N)ccc2[nH]c(-c3cn4c(n3)C(c3cccc(C)c3F)OCC4)cc12 (single isomer, unassigned) [Compound 135, 2-[8-(2-fluoro-3-methylphenyl)-5,6-dihydro-8H-imidazo[2,1-c][1,4]oxazin-2-yl]-4-methoxy-1H-indole-5-carbonitrile]
IC50 (Aβ42): 36 nM
IC50 (Aβtotal; [2]): > 10000 nM

COc1c(C#N)ccc2[nH]c(-c3cn4c(n3)C(c3cccc(C)c3F)OCC4)cc12 (single isomer, unassigned) [Compound 136, 2-[8-(2-fluoro-3-methylphenyl)-5,6-dihydro-8H-imidazo[2,1-c][1,4]oxazin-2-yl]-4-methoxy-1H-indole-5-carbonitrile]
IC50 (Aβ42): 1260 nM
IC50 (Aβtotal; [1]): > 10000 nM

COc1c(C#N)ccc2[nH]c(-c3nc4n(n3)CCOC4c3cccc(C)c3F)cc12 (single isomer, unassigned) [Compound 149, 2-[8-(2-fluoro-3-methylphenyl)-5,6-dihydro-8H-[1,2,4]triazolo[5,1-c][1,4]oxazin-2-yl]-4-methoxy-1H-indole-5-carbonitrile]
IC50 (Aβ42): 1860 nM
IC50 (Aβtotal; [1]): > 10000 nM
